Assay results as given in patent US12129240B2, “Sulfonium salt, photoacid generator, curable composition and resist composition” (SAN-APRO LTD., priority 2019, dated 2024).

Assay: Evaluation of solubility in solvent
Assay type: physicochemical
Settings: room temperature (25° C.), highest concentration completely dissolved; for Solubility Solvent-4: propylene carbonate; for Solubility Solvent-3: γ-butyrolactone

Row | SMILES | Solubility Solvent-4 | Solubility Solvent-3
1 | Cc1cc([S+](c2ccc3sc4ccccc4c(=O)c3c2)c2cc(C(C)(C)C)ccc2C)c(C(C)(C)C)cc1Sc1ccc2sc3ccccc3c(=O)c2c1 (stereo not drawn) [Example 46, [2-tert-butyl-5-methyl-4-(2-thioxanthonylthio)phenyl](5-tert-butyl-2-methylphenyl) (2-thioxanthonyl)sulfonium tris(pentafluoroethyl) Trifluorophosphate] | 33 wt % | 49 wt %
2 | COc1cccc([S+](c2ccc3sc4ccccc4c(=O)c3c2)c2ccc(Sc3ccc4sc5ccccc5c(=O)c4c3)cc2OC)c1 (stereo not drawn) [Example 14, [2-methoxy-4-(2-thioxanthonylthio)phenyl](3-methoxyphenyl) (2-thioxanthonyl)sulfonium tris(pentafluoroethyl) Trifluorophosphate] | 32 wt % | 31 wt %
3 | CC(C)(C)c1cccc([S+](c2ccc3sc4ccccc4c(=O)c3c2)c2ccc(Sc3ccc4sc5ccccc5c(=O)c4c3)cc2C(C)(C)C)c1 (stereo not drawn) [Example 23, [2-tert-butyl-4-(2-thioxanthonylthio)phenyl](3-tert-butylphenyl) (2-thioxanthonyl)sulfonium Hexafluoroantimonate] | 24 wt % | 25 wt %
4 | Cc1ccc(C)c([S+](c2ccc3sc4ccccc4c(=O)c3c2)c2cc(C)c(Sc3ccc4sc5ccccc5c(=O)c4c3)cc2C)c1 (stereo not drawn) [Example 36, [2,5-dimethyl-4-(2-thioxanthonylthio)phenyl](2,5-dimethylphenyl) (2-thioxanthonyl)sulfonium Potassium Hexafluorophosphate] | 25 wt % | 25 wt %
5 | COc1cccc([S+](c2ccc3sc4ccccc4c(=O)c3c2)c2ccc(Sc3ccc4sc5ccccc5c(=O)c4c3)cc2OC)c1 (stereo not drawn) [Example 12, [2-methoxy-4-(2-thioxanthonylthio)phenyl](3-methoxyphenyl) (2-thioxanthonyl)sulfonium Hexafluorophosphate] | 21 wt % | 10 wt %
6 | Cc1cc([S+](c2ccc3sc4ccccc4c(=O)c3c2)c2cc(C(C)(C)C)ccc2C)c(C(C)(C)C)cc1Sc1ccc2sc3ccccc3c(=O)c2c1 (stereo not drawn) [Example 44, [2-tert-butyl-5-methyl-4-(2-thioxanthonylthio)phenyl](5-tert-butyl-2-methylphenyl) (2-thioxanthonyl)sulfonium Hexafluorophosphate] | 31 wt % | 33 wt %
7 | O=c1c2ccccc2sc2ccc(Sc3ccc([S+](c4ccccc4)c4ccc5sc6ccccc6c(=O)c5c4)cc3)cc12 (stereo not drawn) [Comparative Example 4, reference compound] | 3 wt % | 9 wt %
8 | Cc1cc(C)cc([S+](c2ccc3sc4ccccc4c(=O)c3c2)c2c(C)cc(Sc3ccc4sc5ccccc5c(=O)c4c3)cc2C)c1 (stereo not drawn) [Example 30, [2,6-dimethyl-4-(2-thioxanthonylthio)phenyl](3,5-dimethylphenyl) (2-thioxanthonyl)sulfonium tris(pentafluoroethyl) Trifluorophosphate] | 33 wt % | 40 wt %
9 | COc1cccc([S+](c2ccc3sc4ccccc4c(=O)c3c2)c2ccc(Sc3ccc4sc5ccccc5c(=O)c4c3)cc2OC)c1 (stereo not drawn) [Example 15, [2-methoxy-4-(2-thioxanthonylthio)phenyl](3-methoxyphenyl) (2-thioxanthonyl)sulfonium Hexafluoroantimonate] | 20 wt % | 18 wt %
10 | Cc1ccc(C)c([S+](c2ccc3sc4ccccc4c(=O)c3c2)c2cc(C)c(Sc3ccc4sc5ccccc5c(=O)c4c3)cc2C)c1 (stereo not drawn) [Example 38, [2,5-dimethyl-4-(2-thioxanthonylthio)phenyl](2,5-dimethylphenyl) (2-thioxanthonyl)sulfonium tris(pentafluoroethyl) Trifluorophosphate] | 33 wt % | 40 wt %
11 | Cc1cc([S+](c2ccc3sc4ccccc4c(=O)c3c2)c2cc(C(C)(C)C)ccc2C)c(C(C)(C)C)cc1Sc1ccc2sc3ccccc3c(=O)c2c1 (stereo not drawn) [Example 47, [2-tert-butyl-5-methyl-4-(2-thioxanthonylthio)phenyl](5-tert-butyl-2-methylphenyl) (2-thioxanthonyl)sulfonium Hexafluoroantimonate] | 30 wt % | 33 wt %
12 | Cc1ccc(C)c([S+](c2ccc3sc4ccccc4c(=O)c3c2)c2cc(C)c(Oc3ccc4sc5ccccc5c(=O)c4c3)cc2C)c1 (stereo not drawn) [Example 49, [2,5-dimethyl-4-(2-thioxanthonyloxy)phenyl](2,5-dimethylphenyl) (2-thioxanthonyl)sulfonium tris(pentafluoroethyl) Trifluorophosphate] | 38 wt % | 45 wt %
13 | Cc1ccc(C)c([S+](c2ccc3sc4ccccc4c(=O)c3c2)c2cc(C)c(S(=O)(=O)c3ccc4sc5ccccc5c(=O)c4c3)cc2C)c1 (stereo not drawn) [Example 51, [2,5-dimethyl-4-(2-thioxanthonylsulfonyl)phenyl](2,5-dimethylphenyl) (2-thioxanthonyl)sulfonium tris(pentafluoroethyl) Trifluorophosphate] | 32 wt % | 40 wt %
14 | O=c1c2ccccc2sc2ccc(Sc3ccc([S+](c4ccccc4)c4ccc5sc6ccccc6c(=O)c5c4)cc3)cc12 (stereo not drawn) [Comparative Example 3, reference compound] | 32 wt % | 23 wt %
15 | Cc1cccc([S+](c2ccc3sc4ccccc4c(=O)c3c2)c2ccc(Sc3ccc4sc5ccccc5c(=O)c4c3)cc2C)c1 (stereo not drawn) [Example 7, [2-methyl-4-(2-thioxanthonylthio)phenyl](3-methylphenyl) (2-thioxanthonyl)sulfonium Hexafluoroantimonate] | 15 wt % | 15 wt %
16 | Cc1ccc(C)c([S+](c2ccc3sc4ccccc4c(=O)c3c2)c2cc(C)c([S+]([O-])c3ccc4sc5ccccc5c(=O)c4c3)cc2C)c1 (stereo not drawn) [Example 50, [2,5-dimethyl-4-(2-thioxanthonylsulfinyl)phenyl](2,5-dimethylphenyl) (2-thioxanthonyl)sulfonium tris(pentafluoroethyl) Trifluorophosphate] | 30 wt % | 40 wt %
17 | Cc1cccc([S+](c2ccc3sc4ccccc4c(=O)c3c2)c2ccc(Sc3ccc4sc5ccccc5c(=O)c4c3)cc2C)c1 (stereo not drawn) [Example 4, [2-methyl-4-(2-thioxanthonylthio)phenyl](3-methylphenyl) (2-thioxanthonyl)sulfonium Hexafluorophosphate] | 12 wt % | 12 wt %
18 | CC(C)(C)c1cccc([S+](c2ccc3sc4ccccc4c(=O)c3c2)c2ccc(Sc3ccc4sc5ccccc5c(=O)c4c3)cc2C(C)(C)C)c1 (stereo not drawn) [Example 20, [2-tert-butyl-4-(2-thioxanthonylthio)phenyl](3-tert-butylphenyl) (2-thioxanthonyl)sulfonium Hexafluorophosphate] | 27 wt % | 25 wt %
19 | Cc1cc(C)cc([S+](c2ccc3sc4ccccc4c(=O)c3c2)c2c(C)cc(Sc3ccc4sc5ccccc5c(=O)c4c3)cc2C)c1 (stereo not drawn) [Example 28, [2,6-dimethyl-4-(2-thioxanthonylthio)phenyl](3,5-dimethylphenyl) (2-thioxanthonyl)sulfonium Hexafluorophosphate] | 25 wt % | 30 wt %
20 | Cc1ccc(C)c([S+](c2ccc3sc4ccccc4c(=O)c3c2)c2cc(C)c(Sc3ccc4sc5ccccc5c(=O)c4c3)cc2C)c1 (stereo not drawn) [Example 39, [2,5-dimethyl-4-(2-thioxanthonylthio)phenyl](2,5-dimethylphenyl) (2-thioxanthonyl)sulfonium Hexafluoroantimonate] | 23 wt % | 29 wt %
21 | O=c1c2ccccc2sc2ccc(Sc3ccc([S+](c4ccccc4)c4ccc5sc6ccccc6c(=O)c5c4)cc3)cc12 (stereo not drawn) [Comparative Example 2, reference compound] | 2 wt % | 7 wt %
22 | Cc1cccc([S+](c2ccc3sc4ccccc4c(=O)c3c2)c2ccc(Sc3ccc4sc5ccccc5c(=O)c4c3)cc2C)c1 (stereo not drawn) [Example 6, [2-methyl-4-(2-thioxanthonylthio)phenyl](3-methylphenyl) (2-thioxanthonyl)sulfonium tris(pentafluoroethyl) Trifluorophosphate] | 32 wt % | 23 wt %
23 | Cc1cc(C)cc([S+](c2ccc3sc4ccccc4c(=O)c3c2)c2c(C)cc(Sc3ccc4sc5ccccc5c(=O)c4c3)cc2C)c1 (stereo not drawn) [Example 31, [2,6-dimethyl-4-(2-thioxanthonylthio)phenyl](3,5-dimethylphenyl) (2-thioxanthonyl)sulfonium Hexafluoroantimonate] | 23 wt % | 25 wt %
24 | CC(C)(C)c1cccc([S+](c2ccc3sc4ccccc4c(=O)c3c2)c2ccc(Sc3ccc4sc5ccccc5c(=O)c4c3)cc2C(C)(C)C)c1 (stereo not drawn) [Example 22, [2-tert-butyl-4-(2-thioxanthonylthio)phenyl](3-tert-butylphenyl) (2-thioxanthonyl)sulfonium tris(pentafluoroethyl) Trifluorophosphate] | 33 wt % | 38 wt %
